Measurements taken from patent US10000479B2, “Compounds and their methods of use” (AGIOS PHARMACEUTICALS, INC., priority 2014, dated 2018).

Molecular target: T1, glutaminase (GAC) (Homo sapiens, UniProt O94925)
T1 sequence (O94925 55-598 isoform O94925-3 limits assumed): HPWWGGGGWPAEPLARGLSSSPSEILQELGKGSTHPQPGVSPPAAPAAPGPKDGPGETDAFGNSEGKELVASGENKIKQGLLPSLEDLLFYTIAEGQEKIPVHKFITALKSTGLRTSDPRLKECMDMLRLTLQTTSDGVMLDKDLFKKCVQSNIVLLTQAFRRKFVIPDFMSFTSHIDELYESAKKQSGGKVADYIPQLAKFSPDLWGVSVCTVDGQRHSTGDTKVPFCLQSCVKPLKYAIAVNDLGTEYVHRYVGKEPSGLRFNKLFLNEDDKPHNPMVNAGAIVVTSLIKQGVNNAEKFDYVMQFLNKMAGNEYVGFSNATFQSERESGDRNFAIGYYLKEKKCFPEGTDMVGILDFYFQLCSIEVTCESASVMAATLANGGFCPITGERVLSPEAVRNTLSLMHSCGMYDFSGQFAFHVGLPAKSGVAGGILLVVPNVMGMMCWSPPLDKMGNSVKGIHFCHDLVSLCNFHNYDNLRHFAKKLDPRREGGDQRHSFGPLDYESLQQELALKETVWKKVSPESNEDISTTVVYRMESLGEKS
Experiment: glutaminase coupled endpoint assay (Example A)
Type: biochemical
Details: inhibition of glutaminase; assay of Example A or Example B
Method: In this example, the enzymatic activity of glutaminase is measured through a coupled endpoint assay. Glutamine and phosphate are supplied to GAC at a concentration equal to Km and AC50, respectively, and GAC concentration is adjusted to give a linear reaction for 60 minutes. The glutamate produced is converted to 2-OG by a kinetic excess of glutamate dehydrogenase. This second step is configured for 2× Km for NAD, since excess NAD is inhibitory. However, a kinetic excess of the third coupling enzyme, diaphorase, recycles NAD from NADH to keep the NAD concentration constant during the timecourse of the assay. Diaphorase, also supplied in kinetic excess, oxidizes NADH produced by GDH back to NAD with the concomitant reduction of rezasurin to the highly fluorescent resorufin. Resorufin in measured after the assay is stopped with SDS by Ex544/Em590. A reduction in the signal indicates inhibition of some component of the coupled enzyme system. Prospective hits are counterscreened against GDH/diaphorase alone to remove hits to the coupling enzyme system in a second assay.
2. Buffers • 2× Buffer (300 mM NaCl, 100 mM HEPES pH 8.5, 0.1% BSA, 0.5 mM EDTA, 100 mM sodium phosphate pH 8.5) • 5× Substrate Mix (1× Buffer final concentration, with 13 mM glutamine, 100 μM resazurin, 50 μg/ml diaphorase) • 1.2× Enzyme Mix (1× Buffer final concentration, with 0.875 μg/ml GAC, 1.56 mM NAD, 6.25 units/ml GDH) • Stop Mix (6% SDS in ddH20) Reaction Procedure • 1. Add 1 μl compound in 100% DMSO • 2. Add 40 μl of Enzyme Mix and incubate for 60 minute at room temperature • 3. Add 10 μl of Substrate Mix to start reaction • 4. Stop reaction with 25 μl of 6% SDS and read Ex544 Em 590
A compound described herein may be tested for its ability to inhibit glutaminase, e.g., by an assay as described in the Examples. For simplicity, the inhibition activity of these compounds is represented as an IC50 tested in an assay of Example A or Example B in Table 1. As shown, “A” refers to an inhibitor of glutaminase with an IC50<100 nM. “B” refers to inhibitor of glutaminase with an IC50 between 100 nM and 500 nM. “C” refers to inhibitor of glutaminase with an IC50 between 500 nM and 1000 nM. “D” refers to inhibitor of glutaminase with an IC50 between 1 μM and 2 μM. “E” refers to inhibitor of glutaminase with an IC50 between 2 μM and 10 μM. “N/A” refers to compounds wherein the IC50 is unavailable.

| Structure (SMILES) | IC50 [nM] |
| --- | --- |
| O=C(Cc1ccccn1)Nc1ccc([C@@H]2CCC[C@@H](c3ccc(NC(=O)Cc4ccccn4)nn3)C2)nn1 (racemic) [Compound 14, Trans-(rac)-N,N′-(6,6′-(cyclohexane-1,3-diyl)bis(pyridazine-6,3-diyl))bis(2-(pyridin-2-yl)acetamide)] | < 100 |
| CC(=O)Nc1ccc([C@H]2CCC[C@H](c3ccc(NC(C)=O)nn3)C2)nn1 (racemic) [Compound 41, Trans-(rac)-N,N′-(6,6′-(cyclohexane-1,3-diyl)bis(pyridazine-6,3-diyl))diacetamide] | 2000 to 10000 |
| O=C(Cc1ccc(OC(F)(F)F)cc1)Nc1ccc([C@H]2CCC[C@H](c3ccc(NC(=O)Cc4ccc(OC(F)(F)F)cc4)nn3)C2)nn1 (racemic) [Compound 75, Trans-(rac)-N,N′-(6,6′-(cyclohexane-1,3-diyl)bis(pyridazine-6,3-diyl))bis(2-(4-(trifluoromethoxy)phenyl)acetamide)] | 2000 to 10000 |
| O=C(Cc1ccccc1)Nc1ccc([C@@H]2CCC[C@H](c3ccc(NC(=O)Cc4ccccc4)nn3)C2)nn1 [Compound 10, N,N′-(6,6′-((1R,3S)-cyclohexane-1,3-diyl)bis(pyridazine-6,3-diyl))bis(2-phenylacetamide)] | < 100 |
| O=C(Cc1ccccn1)Nc1ccc([C@@H]2CCC[C@H](c3ccc(NC(=O)Cc4ccccn4)nn3)C2)nn1 [Compound 20, N,N′-(6,6′-((1R,3S)-Cyclohexane-1,3-diyl)bis(pyridazine-6,3-diyl))bis(2-(pyridin-2-yl)acetamide)] | < 100 |
| CCCC(=O)Nc1ccc([C@@H]2CCC[C@H](c3ccc(NC(=O)CCC)nn3)C2)nn1 [Compound 37, N,N′-(6,6′-((1R,3S)-Cyclohexane-1,3-diyl)bis(pyridazine-6,3-diyl))dibutyramide] | < 100 |
| CC(C)C(=O)Nc1ccc([C@@H]2CCC[C@H](c3ccc(NC(=O)C(C)C)nn3)C2)nn1 [Compound 98, N,N′-(6,6′-((1R,3S)-Cyclohexane-1,3-diyl)bis(pyridazine-6,3-diyl))bis(2-methylpropanamide)] | 100 to 500 |
| CC(=O)Nc1ccc([C@@H]2CCC[C@H](c3ccc(NC(C)=O)nn3)C2)nn1 [Compound 99, N,N′-(6,6′-((1R,3S)-Cyclohexane-1,3-diyl)bis(pyridazine-6,3-diyl))diacetamide] | < 100 |
| CCC(=O)Nc1ccc([C@@H]2CCC[C@H](c3ccc(NC(=O)CC)nn3)C2)nn1 [Compound 152, N,N′-(6,6′-((1R,3S)-Cyclohexane-1,3-diyl)bis(pyridazine-6,3-diyl))dipropionamide] | < 100 |
| O=C(Cc1ccccn1)Nc1ccc(C2CCC(c3ccc(NC(=O)Cc4ccccn4)nn3)C2)nn1 (stereo not shown) [Compound 175, N, N′-(6,6′-(Cyclopentane-1,3-diyl)bis(pyridazine-6,3-diyl))bis(2-(pyridin-2-yl)acetamide)] | < 100 |
| O=C(Nc1ccc([C@@H]2CCC[C@H](c3ccc(NC(=O)OCc4ccccc4)nn3)C2)nn1)OCc1ccccc1 [Compound 176, Dibenzyl (6,6′-((1R,3S)-cyclohexane-1,3-diyl)bis(pyridazine-6,3-diyl))dicarbamate] | < 100 |
| O=C(Cc1cccc(OC(F)(F)F)c1)Nc1ccc([C@@H]2CCC[C@H](c3ccc(NC(=O)Cc4cccc(OC(F)(F)F)c4)nn3)C2)nn1 [Compound 180] | 100 to 500 |
| O=C(Cc1ccccc1)Nc1ccc([C@H]2CCC[C@@H](c3nnc(NC(=O)Cc4ccccc4)s3)C2)nn1 [Compound 291, 2-Phenyl-N-(6-((1S,3R)-3-(5-(2-phenylacetamido)-1,3,4-thiadiazol-2-yl)cyclohexyl)pyridazin-3-yl)acetamide] | < 100 |
